Assay results: US11859248B2, “Nucleic acid modification and identification method” (IMBA—INSTITUT FÜR MOLEKULARE BIOTECHNOLOGIE GMBH, priority 2017, dated 2024)

Tests used:
[1] = test system: reverse transcriptases (Superscript II, Superscript III, Quant-seq RT); assay: Reverse transcription of synthetic thiol-nucleotide-containing RNA followed by high-throughput sequencing; type: biochemical; details: s^6G-containing RNA
Description: Primer extension assays were essentially performed as described previously by Nilsen et al. (Cold Spring Harb Protoc. 2013, 1182-1185). Briefly, template RNA oligonucleotides (5L-let-7-3L or 5L-let-7-s^4Up9-3L; Dharmacon; see Table for sequences) were deprotected according to the instructions of the manufacturer and purified by denaturing polyacrylamide gel-elution. 100 μM purified RNA oligonucleotides were treated with 10 mM iodoacetamide (+IAA) or EtOH (−IAA) in standard reaction conditions (50% DMSO, 50 mM sodiumphosphate buffer, pH 8) for 15 min at 50° C. The reaction was stopped by addition of 20 mM DTT, followed by ethanol precipitation. RT primer (see Table for sequence) was 5′ radiolabeled using γ-^32P-ATP (Perkin-Elmer) and T4-polynucleotide kinase (NEB), followed by denaturing polyacrylamide gel-purification. 640 nM γ-^32P-RT primer was annealed to 400 nM 5L-let-7-3L or 5L-let-7-s^4Up9-3L in 2× annealing buffer (500 mM KCl, 50 mM Tris pH 8.3) in a PCR machine (3 min 95° C., 30 sec 85° C. Ramp 0.5° C./s, 5 min 25° C. Ramp 0.1° C./s). Reverse transcription was performed using Superscript II (Invitrogen), Superscript III (Invitrogen), or Quant-seq RT (Lexogen) as recommended by the manufacturer. For dideoxynucleotide reactions, a final concentration of 500 μM ddNTP (as indicated) was added to RT reactions. Upon completion, RT reactions were resuspended in formamide loading buffer (Gel loading buffer II, Thermo Fisher Scientific) and subjected to 12.5% denaturing polyacrylamide gel electrophoresis. Gels were dried, exposed to storage phosphor screen (PerkinElmer), imaged on a Typhoon TRIO variable mode imager (Amersham Biosciences), and quantified using ImageQuant TL v7.0 (GE Healthcare). […]
For sequencing analysis of synthetic RNA samples (FIG. 5) barcoded libraries were demultiplexed using Picard Tools BamIndexDecoder v1.13 allowing 0 mismatches in the barcode. […] Remaining aligned reads were converted to pileup format. […] Output table was analyzed and plotted in Excel v15.22 (Microsoft) and Prism v7.0a (GraphPad). […]

Superscript II = target: T1, Superscript II (Moloney murine leukemia virus, UniProt P03355, D1183G/D1242N/E1221Q); assay: pH-dependent reverse transcription of 5BrU-containing RNA oligonucleotide measured by sequencing; type: biochemical
T1 construct: purchased Thermo Fisher Scientific
Description: Further, it has been shown that 5BrU is taken up by cells, phosphorylated, and incorporated into nascent RNA (Larsen et al., Current Protocols in Cytometry. 12 (7.12): 7.12.1-7.12.11, 2001). […] We used […] of the synthetic RNA oligonucleotide which contained a 5BrU modification at a single central position. […] The reverse transcription was performed by Superscript II (Thermo Fisher Scientific) according to the instructions of the manufacturer using the RT DNA oligonucleotide primer (5″-[…]-3″, SEQ ID NO: 9) and 5×RT buffer for which pH was adjusted to pH7, pH8, or pH9, respectively. After reverse transcription, […] reverse transcription product was subjected to PCR amplification using KAPA Real-time Library Amplification Kit (KAPA Biosystems) according to the instructions of the manufacturer, using the DNA oligonucleotides Solexa PCR Fwd (5″-[…]-3′, SEQ ID NO: 10) and Solexa IDX rev (5′-[…]-3′, SEQ ID NO: 11; NNNNNN indicates the position of the barcode-nucleotides). The amplified libraries were sequenced by high-throughput sequencing using the Illumina MiSeq platform. The conversion rates for the 5BrU nucleotide were determined by counting the frequency of nucleotide A (adenine), G (guanine), and C (cytosine) other than the expected majority readout of T (thymine) at the position of 5BrU.
The pH-dependent conversion rates of 5BrU, or T in the final readout, to A (T>A conversion) show a 1.1-fold and 1.4-fold increase with an increase of pH during reverse transcription to pH 8 and pH 9 respectively compare to the background conversion rate of 3·10^−4 at pH 7 (FIG. 37C). The T>G conversion increases by 1.2- and 1.9-fold compare to the lower background conversion rate of 1·10^−4 at pH 7. In contrast, the T>C conversion rate increases by 2.2-fold and 4.3-fold compare to the background conversion rate of 3·10^−4 at pH 7. The signature of the pH dependent changes in conversion rates is characteristic for the 5BrU in the RNA and can be used to identify the number of 5BrU which are incorporated into nascent RNA during transcription.

Pol2-S2 phosphorylation [2] = assay: Pol2-S2 phosphorylation after BETi treatment in MV4-11 cells; type: cell-based, human; details: high-dose (1 or 5 μM)
Description: (§1) Chemiluminescent detection of primary antibodies was performed using HRP-conjugated secondary antibodies (Cell Signaling Technology, catalog numbers #7074, #7076 and #7077). Alternatively, fluorescence detection of rabbit and mouse primary antibodies was performed on an Odyssey CLx Imaging System (LI-COR Biosciences) using secondary antibodies IRDye 680RD Goat anti-Rabbit IgG and IRDye 800CW Goat anti-Mouse IgG (LI-COR Biosciences).
(§2) While these findings are in line with the promiscuous binding of BRD4 to active TSS and its physical interaction with core transcriptional machinery, they contrast selective effects observed after BETi treatment in conventional expression analysis. To define immediate transcriptional effects of BETi and compare them to BRD4 degradation, we performed SLAM-seq following treatment with different doses of the BETi JQ1 in K562 cells and the acute myeloid leukemia (AML) cell line MV4-11.

K562 cells = assay: SLAM-seq transcriptional response in K562 cells; type: cell-based, human
Description: (§3) All SLAM-seq assays were performed at 60-70% confluency for adherent cells or 60% of the maximum cell density counted on a hemocytometer for suspension cells. 5-7 h prior to each assay, growth medium was aspirated and replaced. Unless stated otherwise, cells were pre-treated with indicated small molecule inhibitors or 100 μM IAA for 30 minutes to pre-establish full target inhibition or degradation. Newly synthesized RNA was labeled for indicated time spans (45′ or 60′) at a final concentration of 100 μM 4-thiouridine (s^4U, Carbosynth). Adherent cells were harvested by direct snap-freezing of plates on dry ice. Suspension cells were spun down and immediately snap-frozen. RNA extraction was performed using the RNeasy Plus Mini Kit (Qiagen). Total RNA was subjected to alkylation by iodoacetamide (Sigma, 10 mM) for 15′ and RNA was re-purified by ethanol precipitation. […]
(§4) All other SLAM-seq experiments were performed in triplicates and analyzed as follows. Differential gene expression calling was performed on raw read counts with 2 T>C conversions using DESeq2 (version 1.14.1) with default settings, and with size factors estimated on corresponding total mRNA reads for global normalization. […]

Pol2-S2 phosphorylation [3] = assay: Pol2-S2 phosphorylation after BETi treatment in K562 cells; type: cell-based, human; details: high-dose (1 or 5 μM)
Description: as §1, §2

MV4-11 = assay: SLAM-seq transcriptional response in MV4-11 cells; type: cell-based, human; details: high-dose (1 or 5 μM)
Description: as §3, §4

MOLM-13 cells = assay: SLAM-seq transcriptional response to NVP-2 and JQ1 in MOLM-13 cells; type: cell-based, human
Description: as §3, §4

MYC [4] = assay: Auxin-inducible degradation of AID-tagged MYC in HCT116 cells (immunoblotting); type: cell-based, human; details: TIR1-expressing HCT116 MYC-AID cells
BRD4 = assay: Auxin-inducible degradation of AID-tagged BRD4 in K562 cells (immunoblotting); type: cell-based, human; details: AID-tagged K562 cells expressing Tir1
MYC [5] = assay: Auxin-inducible degradation of AID-tagged MYC in K562 cells (immunoblotting); type: cell-based, human; details: Tir1-expressing

Molecule: 4-thiouridine [s^4U]
- conversion observed [1]: G to A conversion

Molecule: O=c1[nH]c(=O)n([C@@H]2O[C@H](CO)[C@@H](O)[C@H]2O)cc1Br [5BrU, 5-Bromouridine]
- T>A background conversion rate (Superscript II; pH 7): 3·10^−4
- T>C background conversion rate (Superscript II; pH 7): 3·10^−4
- T>G background conversion rate (Superscript II; pH 7): 1·10^−4
- increase of T>A conversion rate relative to pH 7 (Superscript II; pH 8): 1.1 fold
- increase of T>C conversion rate relative to pH 7 (Superscript II; pH 8): 2.2 fold
- increase of T>G conversion rate relative to pH 7 (Superscript II; pH 8): 1.2 fold
- increase of T>A conversion rate relative to pH 7 (Superscript II; pH 9): 1.4 fold
- increase of T>C conversion rate relative to pH 7 (Superscript II; pH 9): 4.3 fold
- increase of T>G conversion rate relative to pH 7 (Superscript II; pH 9): 1.9 fold

Molecule: Cc1sc2c(c1C)C(c1ccc(Cl)cc1)=N[C@@H](CC(=O)OC(C)(C)C)c1nnc(C)n1-2 [JQ1]
- Pol2-S2 phosphorylation (Pol2-S2 phosphorylation [2]): globally reduced Pol2-S2 phosphorylation
- direct transcriptional response (K562 cells; 200 nM): selective deregulation of a small number of transcripts
- direct transcriptional response (K562 cells; high-dose (1 or 5 μM)): broadly suppressed transcription
- Pol2-S2 phosphorylation (Pol2-S2 phosphorylation [3]): globally reduced Pol2-S2 phosphorylation
- direct transcriptional response (MV4-11): broadly suppressed transcription

Molecule: COC[C@@H](C)NC1CCC(Nc2cc(-c3cccc(NCC4(C#N)CCOCC4)n3)c(Cl)cn2)CC1 (some centres unmarked) [NVP-2]
- transcriptional response (MOLM-13 cells; high-dose, 60 nM): globally suppressed transcription
- transcriptional response (MOLM-13 cells; intermediate dose, 6 nM): selective transcriptional responses

Molecule: O=C(O)Cc1c[nH]c2ccccc12 [auxin, indole-3-acetic acid]
- time to complete degradation of MYC (MYC [4]): less than 30 ′
- time to near complete degradation of BRD4 (BRD4): ≤ 30 ′
- time to degradation of MYC (MYC [5]): less than 30 ′
